Patent US9346761B2, “Arginine methyltransferase inhibitors and uses thereof” (Epizyme, Inc., priority 2013, dated 2016)

Key:
[1] = target: T1, Full-length human PRMT1 isoform 1 (Homo sapiens, UniProt Q99873); assay: PRMT1 biochemical assay (3H-SAM Flashplate, peptide substrate)
T1 construct: GST-tagged PRMT1; made in house; host or cells: High Five insect cells (baculovirus, pFastBacI)
Method in brief: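 Tritiated methyl transfer from 3H-SAM onto biotinylated peptide, captured on streptavidin Flashplates and counted. Baculovirus-expressed GST-PRMT1 and compound were preincubated 30 min at room temperature in Bicine buffer pH 7.6. Cold SAM at 300 uM final ended the reaction.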

Human CARM1 (PRMT4) = target: T2, Human CARM1 (PRMT4) (Homo sapiens, UniProt Q86X55); assay: CARM1 biochemical assay (3H-SAM Flashplate, peptide substrate)
T2 construct: Flag-CARM1-His was eluted with 200 ug/ml FLAG peptide in buffer A; made in house; host or cells: HEK 293F cells (BacMam virus, pFastBacMam)
T2 sequence (Q86X55 with tags, fused parts or gaps isoform Q86X55-1): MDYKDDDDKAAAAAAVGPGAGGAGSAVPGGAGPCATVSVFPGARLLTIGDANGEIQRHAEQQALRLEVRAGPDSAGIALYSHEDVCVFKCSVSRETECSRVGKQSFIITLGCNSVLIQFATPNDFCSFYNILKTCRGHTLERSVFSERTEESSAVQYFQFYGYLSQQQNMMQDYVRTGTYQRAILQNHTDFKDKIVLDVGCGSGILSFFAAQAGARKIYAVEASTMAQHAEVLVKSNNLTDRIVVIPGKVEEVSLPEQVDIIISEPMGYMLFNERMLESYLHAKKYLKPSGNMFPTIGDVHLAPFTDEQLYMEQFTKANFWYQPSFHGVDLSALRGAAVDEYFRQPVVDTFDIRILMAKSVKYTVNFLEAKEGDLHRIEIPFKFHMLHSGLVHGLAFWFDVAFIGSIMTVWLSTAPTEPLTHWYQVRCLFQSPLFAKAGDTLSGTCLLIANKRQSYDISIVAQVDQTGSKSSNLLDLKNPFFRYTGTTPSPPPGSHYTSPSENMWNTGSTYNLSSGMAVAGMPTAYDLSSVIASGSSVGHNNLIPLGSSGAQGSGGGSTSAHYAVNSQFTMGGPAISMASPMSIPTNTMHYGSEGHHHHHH
Description: General Materials. S-adenosylmethionine (SAM), S-adenosylhomocysteine (SAH), bicine, Tween20, dimethylsulfoxide (DMSO), bovine skin gelatin (BSG), sodium butyrate and Tris(2-carboxyethyl)phosphine hydrochloride solution (TCEP) were purchased from Sigma-Aldrich at the highest level of purity possible. ^3H-SAM was purchase from American Radiolabeled Chemicals with a specific activity of 80 Ci/mmol. 384-well streptavidin Flashplates were purchased from PerkinElmer.
Substrates. Peptide representative of human histone H3 residues 16-30 was synthesized with an N-terminal linker-affinity tag motif and a C-terminal amide cap by 21st Century Biochemicals.
Protein Expression. Recombinant baculovirus were generated according to Bac-to-Bac kit instructions (Life Technologies). […] Infections were carried out at 37° C. for 48 hours, harvested by centrifugation, and stored at −80° C. for purification.
Protein Purification. […] Column was washed with 500 mM NaCl in buffer A and Flag-CARM1-His was eluted with 200 ug/ml FLAG peptide in buffer A. Pooled fractions were dialyzed in 20 mM Tris, 150 mM NaCl, 5% glycerol and 1 mM DTT, pH 7.8.
General Procedure for CARM1 Enzyme Assays on Peptide Substrates. The assays were all performed in a buffer consisting of 20 mM Bicine (pH=7.6), 1 mM TCEP, 0.005% BSG, and 0.002% Tween 20, prepared on the day of use. […] DMSO (1 ul) was added to Columns 11, 12, 23, 24, rows A-H for the maximum signal control and 1 ul of SAH, a known product and inhibitor of CARM1, was added to columns 11, 12, 23, 24, rows I-P for the minimum signal control. A cocktail (40 ul) containing the CARM1 enzyme was added by Multidrop Combi (Thermo-Fisher). The compounds were allowed to incubate with CARM1 for 30 min at room temperature, then a cocktail (10 ul) containing ^3H-SAM and peptide was added to initiate the reaction (final volume=51 ul). […] The assays were stopped by the addition of non-radiolabeled SAM (10 ul) to a final concentration of 300 uM, which dilutes the ^3H-SAM to a level where its incorporation into the peptide substrate is no longer detectable. 50 ul of the reaction in the 384-well polypropylene plate was then transferred to a 384-well Flashplate and the biotinylated peptides were allowed to bind to the streptavidin surface for at least 1 hour before being washed once with 0.1% Tween20 in a Biotek ELx405 plate washer. The plates were then read in a PerkinElmer TopCount plate reader to measure the quantity of ^3H-labeled peptide bound to the Flashplate surface, measured as disintegrations per minute (dpm) or alternatively, referred to as counts per minute (cpm).
Where dpm=disintegrations per minute, cmpd=signal in assay well, and min and max are the respective minimum and maximum signal controls.
Where top and bottom are the normally allowed to float, but may be fixed at 100 or 0 respectively in a 3-parameter fit. The Hill Coefficient normally allowed to float but may also be fixed at 1 in a 3-parameter fit. Y is the % inhibition and X is the compound concentration.

T1 sequence (Q99873 with tags, fused parts or gaps): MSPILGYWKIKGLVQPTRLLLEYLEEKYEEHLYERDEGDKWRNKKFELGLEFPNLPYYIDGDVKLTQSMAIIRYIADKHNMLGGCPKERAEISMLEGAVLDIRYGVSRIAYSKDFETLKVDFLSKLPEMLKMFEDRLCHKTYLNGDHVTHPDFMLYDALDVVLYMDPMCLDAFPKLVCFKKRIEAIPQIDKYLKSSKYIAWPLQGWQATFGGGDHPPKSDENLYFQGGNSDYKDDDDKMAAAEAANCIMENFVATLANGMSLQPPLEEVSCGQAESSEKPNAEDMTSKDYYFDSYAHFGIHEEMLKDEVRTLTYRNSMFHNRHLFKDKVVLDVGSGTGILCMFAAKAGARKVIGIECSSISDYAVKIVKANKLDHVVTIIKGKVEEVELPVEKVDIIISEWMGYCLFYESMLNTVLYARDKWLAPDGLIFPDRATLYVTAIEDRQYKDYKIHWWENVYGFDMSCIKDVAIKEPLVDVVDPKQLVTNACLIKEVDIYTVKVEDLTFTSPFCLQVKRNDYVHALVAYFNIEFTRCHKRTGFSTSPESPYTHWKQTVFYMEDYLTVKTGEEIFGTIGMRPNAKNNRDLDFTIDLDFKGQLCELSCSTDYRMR

Compound `CCN(C)C(=O)c1ccc(-c2n[nH]cc2CN(C)CCN)cc1` [Compound 163] has an IC50 [1] of 0.101 to 1 µM.
In the case of `CN(CCN)Cc1c[nH]nc1-c1cc(F)ccc1Cl` [Compound 106], the IC50 [1] is reported as 0.101 to 1 µM and the IC50 (Human CARM1 (PRMT4)) is reported as > 10 µM.
In the case of `Cc1ccc(F)cc1-c1n[nH]cc1CN(C)CCN` [Compound 159], the IC50 [1] is reported as < 0.1 µM and the IC50 (Human CARM1 (PRMT4)) is reported as > 10 µM.
In the case of `COCCOc1ccc(-c2n[nH]cc2CN(C)CCN)cc1` [Compound 167], the IC50 [1] is reported as < 0.1 µM.
With `CN(CCN)Cc1c[nH]nc1-c1cccc(Cl)c1F` [Compound 123] the IC50 [1] was < 0.1 µM and the IC50 (Human CARM1 (PRMT4)) was 1.01 to 3 µM.
For `COCCn1ncc(CN(C)CCN)c1-c1ccc(F)cc1` [Compound 6], the IC50 [1] was 3.01 to 10 µM and the IC50 (Human CARM1 (PRMT4)) was > 10 µM.
For `CCNC(=O)c1ccc(-c2n[nH]cc2CN(C)CCN)cc1` [Compound 136], the IC50 [1] was < 0.1 µM and the IC50 (Human CARM1 (PRMT4)) was 1.01 to 3 µM.
With `COc1cc(F)ccc1-c1n[nH]cc1CN(C)CCN` [Compound 151] the IC50 [1] was 0.101 to 1 µM and the IC50 (Human CARM1 (PRMT4)) was 3.01 to 10 µM.
`Cc1cc(Cl)ccc1-c1n[nH]cc1CN(C)CCN` [Compound 133] was tested, and the IC50 [1] was < 0.1 µM and the IC50 (Human CARM1 (PRMT4)) was 3.01 to 10 µM.
`CN(CCN)Cc1c[nH]nc1-c1cccc(N(C)C)c1` [Compound 149] was tested, and the IC50 [1] was < 0.1 µM and the IC50 (Human CARM1 (PRMT4)) was 1.01 to 3 µM.
With `Cc1ccc(-c2n[nH]cc2CN(C)CCN)cc1` [Compound 162] the IC50 [1] was < 0.1 µM and the IC50 (Human CARM1 (PRMT4)) was 0.101 to 1 µM.
For `Cc1cc(F)ccc1-c1n[nH]cc1CN(C)CCN` [Compound 152], the IC50 [1] was < 0.1 µM and the IC50 (Human CARM1 (PRMT4)) was 3.01 to 10 µM.
With `CN(CCN)Cc1c[nH]nc1-c1ccc(C(F)(F)F)cc1Cl` [Compound 135] the IC50 [1] was < 0.1 µM and the IC50 (Human CARM1 (PRMT4)) was > 10 µM.
In the case of `CN(CCN)Cc1c[nH]nc1-c1cc(F)cc(Cl)c1` [Compound 121], the IC50 [1] is reported as < 0.1 µM and the IC50 (Human CARM1 (PRMT4)) is reported as 0.101 to 1 µM.
With `CN(CCN)Cc1c[nH]nc1-c1ccc(C2CCOCC2)cc1` [Compound 98] the IC50 [1] was < 0.1 µM and the IC50 (Human CARM1 (PRMT4)) was 0.101 to 1 µM.
With `COc1cc(Cl)cc(-c2n[nH]cc2CN(C)CCN)c1` [Compound 127] the IC50 [1] was < 0.1 µM and the IC50 (Human CARM1 (PRMT4)) was 1.01 to 3 µM.
For `CN(CCN)Cc1c[nH]nc1-c1ccc(OC2CC2)cc1` [Compound 114], the IC50 [1] was < 0.1 µM and the IC50 (Human CARM1 (PRMT4)) was 0.101 to 1 µM.
For `CN(CCN)Cc1n[nH]cc1-c1ccc(Cl)cc1` [Compound 102], the IC50 [1] was < 0.1 µM and the IC50 (Human CARM1 (PRMT4)) was 1.01 to 3 µM.
With `CC(C)Cc1ccc(-c2c[nH]nc2CN(C)CCN)cc1` [Compound 170] the IC50 [1] was < 0.1 µM.
`Cc1c(F)cccc1-c1n[nH]cc1CN(C)CCN` [Compound 129] showed an IC50 [1] of 0.101 to 1 µM and an IC50 (Human CARM1 (PRMT4)) of 1.01 to 3 µM.
With `CN(CCN)Cc1n[nH]cc1-c1ccc(OC2CC2)cc1` [Compound 119] the IC50 [1] was < 0.1 µM and the IC50 (Human CARM1 (PRMT4)) was 0.101 to 1 µM.
In the case of `CN(CCN)Cc1c[nH]nc1-c1cc(Cl)cc(Cl)c1` [Compound 137], the IC50 [1] is reported as < 0.1 µM and the IC50 (Human CARM1 (PRMT4)) is reported as 0.101 to 1 µM.
In the case of `Cc1cc(C#N)ccc1-c1n[nH]cc1CN(C)CCN` [Compound 110], the IC50 [1] is reported as < 0.1 µM and the IC50 (Human CARM1 (PRMT4)) is reported as 3.01 to 10 µM.
In the case of `CN(CCN)Cc1n[nH]cc1-c1ccc(OC(F)(F)F)cc1` [Compound 105], the IC50 [1] is reported as < 0.1 µM and the IC50 (Human CARM1 (PRMT4)) is reported as 3.01 to 10 µM.
In the case of `CCOc1ccc(-c2n[nH]cc2CN(C)CCN)cc1` [Compound 166], the IC50 [1] is reported as < 0.1 µM.
In the case of `CN(CCN)Cc1c[nH]nc1-c1ccc(C(F)(F)F)c(Cl)c1` [Compound 117], the IC50 [1] is reported as < 0.1 µM and the IC50 (Human CARM1 (PRMT4)) is reported as 0.101 to 1 µM.
For `CN(CCN)Cc1c[nH]nc1-c1ccc(OCCN2CCOCC2)cc1` [Compound 172], the IC50 [1] was 0.101 to 1 µM.
With `NCCN(CCO)Cc1c[nH]nc1-c1ccc(F)cc1` [Compound 171] the IC50 [1] was 0.101 to 1 µM.
In the case of `CC(C)CN(C)C(=O)c1ccc(-c2n[nH]cc2CN(C)CCN)cc1` [Compound 164], the IC50 [1] is reported as 0.101 to 1 µM.
